Test results published in article PMC6192554, “In vitro toxicity and efficacy of verdinexor, an exportin 1 inhibitor, on opportunistic viruses affecting immunocompromised individuals” (PLoS ONE, 2018).

How the values were obtained:
[1] = test system: JC polyoma virus MAD-4 strain; test: microbe, parasite or virus in culture; type: cell-based; conditions: Polyomavirus sp., COS-7, JCPyV, COS-7 cells
Method: John Cunningham polyomavirus (JCPyV) strains MAD-1 and MAD-4 and BK polyomavirus (BKPyV) Gardner strain were obtained from ATCC. COS-7 cells were obtained from ATCC and maintained according to ATCC-supplied protocols.
(§1) Cytotoxicity assay was performed in a manner analogous to KSHV above. Evaluation of compounds against JCPyV virus was done in COS7 cells with the plasmid pMP508 to provide a standard curve for quantification.
Viral DNA was quantified (S1 Table) together with the plasmid pMP508 to provide a standard curve for absolute quantification. Secondary assays against JCV were also performed in COS7 cells by methods similar to those for BK virus to identify if verdinexor inhibited adsorption or entry of the virus.

[2] = test system: Epstein-Barr virus (EBV) Akata strain; test: EBV primary assay, DNA hybridization in induced Akata cells; type: cell-based
Method: EBV Akata strain was assayed in Akata cells (John Sixbey, LSU) latently infected with EBV (and therefore oncogenic). Cells were maintained in RPMI 1640, (Mediatech) with 10% FBS (Hyclone), L-glutamine, penicillin and gentamicin.
For Primary assay, Akata cells latently infected with EBV were induced to undergo lytic infection by addition of 50μg/ml of a goat anti-human IgG [16] and a dose-range of verdinexor (0.032 to 100 μM) was added for 72hr. Denaturation buffer was added and an aliquot aspirated through an Immobilon nylon membrane (Millipore, Bedford, MA). Dried membranes were equilibrated in DIG Easy Hyb solution (Roche Diagnostics, Indianapolis, IN) at 56°C. Specific DIG-labeled probes for EBV (S1 Table). (Roche Diagnostics). Membranes with EBV DNA were hybridized overnight followed by washes in 0.2× SSC and 0.1× SSC both with 0.1% SDS. Detection of specifically bound DIG probe was performed with anti-DIG antibody (Roche Diagnostics). An image of the photographic film was captured and quantified with QuantityOne software (Bio-Rad), and the EC50 were interpolated.

HPV-18 = HPV-18 DNA amplification in organotypic raft culture of PHKs (qPCR); type: cell-based, human papillomavirus
Method: HPV-11 and -18 were tested in HEK293 cells and primary human keratinocytes (PHK), respectively. PHKs were isolated from neonatal foreskins following circumcision according to IRB-approved protocols at UAB. They were grown in keratinocyte serum-free medium (Life Technologies) with mitomycin C-treated J2 feeder cells (Swiss 3T3 J2 fibroblasts; Elaine Fuchs, Rockefeller University). HEK 293 cells were maintained under standard conditions.
For secondary assays, the amplification of HPV-18 DNA was determined in an organotypic squamous epithelial raft culture of PHKs. Whole genomic HPV-18 plasmids were generated in plasmid-transfected PHKs and developed into organotypic cultures as described. Based on the results of a 3-day toxicity assay, concentrations of test compound were added to a subset of raft cultures from day 6 through day 13 when the cultures were harvested. Similarly treated normal PHK raft cultures were also prepared to assess toxicity of uninfected tissue. One set of cultures were fixed in 10% buffered formalin, paraffin embedded and sectioned for in situ assay. Sections were stained with hematoxylin and eosin. Total DNA harvest from unfixed raft cultures was used to determine the HPV-18 copy number/per cell by qPCR. Inhibition was expressed as % of viral DNA copies relative to the untreated cultures.

[3] = Cytotoxicity in GPL cells; type: cell-based; conditions: primary guinea pig lung cells (GPL), Guinea pig CMV primary screen
Method: Cytotoxicity assays: Concurrent assessment of cytotoxicity was also performed for each study in the same cell line and with the same compound exposure. For HCMV cytotoxicity assay was determined via neutral red uptake assay and was conducted as reported previously in HFF cells. Optical densities were determined at 550nm. Cytotoxicity assay was performed in a manner analogous to HCMV (see above).

[4] = Cytotoxicity in COS7 cells, concurrent with JCPyV assays; type: cell-based; conditions: African green monkey, COS-7 cells
Method: Cytotoxicity assays: Concurrent assessment of cytotoxicity was also performed for each study in the same cell line and with the same compound exposure.
For KSHV, cell viability was assessed with the CellTiter-Glo Luminescent Cell Viability Assay (Promega) using manufacturer’s protocol. Luminescence was quantified on a luminometer. Standard methods were used to calculate the 50% cytotoxic level (CC50).
as §1

Human CMV strain AD169 = test: HCMV yield reduction assay in HFF cells; type: cell-based, human cytomegalovirus; conditions: Human betaherpesvirus 5, AD169, HFF
Method: Human CMV strain AD169 was obtained from ATCC and assayed in human foreskin fibroblast cells (HFF). HFF cells were prepared at the University of Alabama at Birmingham (UAB) tissue procurement facility with IRB approval as previously described. Yield reduction assays for HCMV were performed on monolayers of HFF cells prepared in 96-well plates and incubated at 37°C for 1d to allow the cells to reach confluency. Media was then aspirated from the wells were infected at a high multiplicity of infection (MOI). At 1h following infection, the inocula were removed and the monolayers rinsed with fresh media. Compounds were then diluted in assay media consisting of MEM with Earl’s salts supplemented with 2% FBS, L-glutamine, penicillin, and gentamycin. Solutions ranging from 0.0032–10μM in primary assay and 0.032–100μM in secondary assay were added to the wells and the plates were incubated for various times, depending on the virus used and represents the length of a single replication cycle for the virus. A duplicate set of dilutions were also performed but remained uninfected to serve as a cytotoxicity control and received equal compound exposure. Supernatants from each of the infected wells were subsequently titered in a TCID50 assay to quantify the progeny virus.

[5] = test system: 104 principal receptor/ligand interactions; test: Off-target panel of in vitro protein binding assays; conditions: 10 μM; 104 receptor/ligand interactions
Method: Serum concentrations with Verdinexor have been previously established in in vivo models of influenza in both mice and ferrets. In mice receiving 10mg/kg and ferrets receiving 5mg/kg, max plasma concentration of verdinexor was approximately 1200 (ng/mL) however, the half life in mice was extended (6 hours) as compared to that of ferrets (2 hours). Serum protein binding of verdinexor in humans is 98.4%. […] A Phase 1, Randomized, Double-Blind, Placebo-Controlled, Sequential, Dose-Escalating Trial to Evaluate the Safety and Tolerability of Oral Verdinexor (KPT-335) in Healthy Adult Subjects was conducted in Nucleus Network, Melbourne, Victoria, Australia [ClinicalTrials.gov: NCT02431364]. No study results are currently posted for this study. Furthermore, a clinical study was submitted to the USA FDA on IND#122718. This phase 1a, Randomized, Double-Blind, Placebo-Controlled, Sequential, Dose-Escalating Trial of Single and Multi-Dose oral verdinexor (KPT-335) to Evaluate the Safety and Tolerability in Healthy Elderly Volunteers is yet to be initiated and recruit subjects.

For `O=C(C=Cn1cnc(-c2cc(C(F)(F)F)cc(C(F)(F)F)c2)n1)NNc1ccccn1` (stereo in doubt) [verdinexor, (E)-3-[3-[3,5-bis(trifluoromethyl)phenyl]-1,2,4-triazol-1-yl]-N'-pyridin-2-ylprop-2-enehydrazide], the EC50 ([1]; primary screen) was 7.45 µM, the EC50 ([1]; secondary screen) was 3.14 µM and the “SI (Selectivity Index, CC50/EC50)” value ([2]; EBV, primary screen, DNA hybridization) was under 1. For the same compound, the EC50 ([2]; human gammaherpesvirus 4, Akata) was over 0.48 µM, the EC50 (HPV-18; Human papillomavirus) was 8.3 µM and the “efficacy against HPV-18” value (HPV-18; secondary screen, PHKs) was “did not show efficacy”. For the same compound, the CC50 [3] was 2 µM, the CC50 ([4]; JCPyV primary screen) was 10 µM and the CC50 ([4]; JCPyV secondary screen) was 73.3 µM. The EC50 (Human CMV strain AD169; primary screen) was 0.19 µM, the EC50 (Human CMV strain AD169; secondary screen) was 2.5 µM and the “effect on off-target panel” value [5] was “none of the enzymes, receptors, transporters, kinases, or cysteine proteases were significantly affected”.
